Test results: US7335632B2, “Beta-secretase inhibitors and methods of use thereof” (CoMentis, Inc., priority 2001, dated 2008)

Key:
Aβ production = assay: Cellular Aβ IC50 determination (Aβ40 sandwich ELISA); type: cell-based; details: Cricetulus griseus, Chinese hamster ovary cells over-expressing human APP695 with London and Swedish mutations, 24 h
Description: The potency of compounds against memapsin 2 activity was determined in a cellular assay of Aβ production. […] Chinese hamster ovary cells that over-express human APP695 with the London and Swedish mutations were seeded in multi-well plates at 10% confluency. Compounds were dissolved in DMSO to concentrations near 1 mM, and diluted into culture media to a final concentration near 4 μM (final 0.4% DMSO). Compounds were diluted serially and applied to cells in multi-well plates 48 h after seeding. Incubation was continued in 5% CO2 at 37 degrees C. for 24 h. Aliquots were removed and assayed for Aβ40 content using a sandwich ELISA (BioSource International). Amount of Aβ40 over the range of concentration of compounds, relative to control incubations, were fit to a 4-parameter IC50 model.

memapsin 2 = memapsin 2 (Homo sapiens, UniProt P56817); assay: Inhibition of memapsin 2 beta-secretase activity toward fluorogenic substrate FS-2; type: biochemical; details: pH 4, 37° C., 20 minutes pre-incubation, substrate FS-2, tight-binding model; read-out: M2 Ki
memapsin 2, sequence (P56817 46-501): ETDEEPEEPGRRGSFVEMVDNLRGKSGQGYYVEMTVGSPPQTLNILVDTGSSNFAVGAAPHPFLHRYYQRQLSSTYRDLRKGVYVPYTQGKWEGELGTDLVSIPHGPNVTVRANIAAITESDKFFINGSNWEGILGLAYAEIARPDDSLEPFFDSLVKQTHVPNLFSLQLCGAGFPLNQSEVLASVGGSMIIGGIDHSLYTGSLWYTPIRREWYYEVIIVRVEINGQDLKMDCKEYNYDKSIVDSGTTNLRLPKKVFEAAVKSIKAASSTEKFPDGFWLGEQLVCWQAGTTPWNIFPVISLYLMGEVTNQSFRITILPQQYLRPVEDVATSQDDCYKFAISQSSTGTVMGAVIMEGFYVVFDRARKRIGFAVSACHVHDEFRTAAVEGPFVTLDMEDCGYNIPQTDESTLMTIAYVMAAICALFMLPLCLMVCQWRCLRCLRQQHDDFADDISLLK
Description: Potency of compounds were determined by measurement of their inhibition of memapsin 2 activity toward a fluorescent substrate. […] Briefly, assays were performed at pH 4, 37° C., by pre-incubation of memapsin 2 enzyme with compound for 20 minutes. Activity measure was initiated by addition of a fluorogenic substrate FS-2 (Bachem Americas, Torrance, Calif.). Fluorescent signal increase over time was measured as a rate of hydrolysis of the peptide substrate.

memapsin 1 = target: T1, memapsin 1 (Homo sapiens, UniProt Q9Y5Z0); assay: Inhibition of memapsin 1 beta-secretase activity (substrate peptide […], MALDI-TOF); type: biochemical; details: pH 4.1, 37 degrees C., substrate NH3-ELDLAVEFWHDR-CO2, MALDI-TOF; read-out: M1 Ki
T1 sequence (Q9Y5Z0 63-518): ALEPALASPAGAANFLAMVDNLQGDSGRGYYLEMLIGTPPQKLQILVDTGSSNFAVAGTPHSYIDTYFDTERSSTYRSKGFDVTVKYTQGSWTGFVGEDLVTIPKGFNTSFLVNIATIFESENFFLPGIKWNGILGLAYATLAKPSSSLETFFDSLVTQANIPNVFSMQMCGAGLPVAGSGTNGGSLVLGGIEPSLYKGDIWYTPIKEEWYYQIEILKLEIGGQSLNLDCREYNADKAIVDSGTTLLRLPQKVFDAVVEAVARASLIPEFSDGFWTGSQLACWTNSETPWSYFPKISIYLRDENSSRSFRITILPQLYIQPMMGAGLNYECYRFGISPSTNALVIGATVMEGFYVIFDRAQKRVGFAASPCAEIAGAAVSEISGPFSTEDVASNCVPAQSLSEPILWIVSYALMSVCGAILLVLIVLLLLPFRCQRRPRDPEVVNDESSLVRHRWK

Cathepsin D = Cathepsin D (Homo sapiens, UniProt P07339); assay: Inhibition of cathepsin D activity (substrate peptide […], MALDI-TOF); type: biochemical; details: pH 4.1, 37 degrees C., substrate NH3-[…]-CO2, MALDI-TOF; read-out: Cath D Ki
Cathepsin D, sequence (P07339 65-412, species assumed): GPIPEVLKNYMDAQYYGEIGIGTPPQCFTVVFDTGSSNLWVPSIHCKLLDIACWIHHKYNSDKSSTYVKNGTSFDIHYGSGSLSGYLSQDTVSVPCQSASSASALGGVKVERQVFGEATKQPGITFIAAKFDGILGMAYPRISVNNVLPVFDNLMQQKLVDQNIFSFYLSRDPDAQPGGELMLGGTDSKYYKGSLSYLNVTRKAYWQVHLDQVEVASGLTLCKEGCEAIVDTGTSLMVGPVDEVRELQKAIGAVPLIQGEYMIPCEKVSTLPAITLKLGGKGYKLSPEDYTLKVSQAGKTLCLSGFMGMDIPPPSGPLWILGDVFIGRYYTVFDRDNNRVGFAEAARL

| Compound | IC50 (Aβ production) | Ki (memapsin 2) | Ki (memapsin 1) | Ki (Cathepsin D) |
| --- | --- | --- | --- | --- |
| Cc1csc(COC(=O)N[C@@H](CS(C)(=O)=O)C(=O)N[C@H](CC(C)C)[C@@H](O)C[C@@H](C)C(=O)N[C@H](CC(C)C)C(=O)NC(C)C)n1 [Structure 46] | < 6000 nM | < 100 nM | 100 to 1000 nM | 100 to 1000 nM |
| Cc1csc(COC(=O)N[C@@H](CS(=O)(=O)CC(C)C)C(=O)N[C@H](CC(C)C)[C@@H](O)C[C@@H](C)C(=O)N[C@@H](C(=O)NCC(C)C)C(C)C)n1 [Structure 49] | > 100000 nM | < 100 nM | < 100 nM | 100 to 1000 nM |
| Cc1nc(COC(=O)N[C@@H](CS(C)(=O)=O)C(=O)N[C@H](CC(C)C)[C@@H](O)C[C@@H](C)C(=O)N[C@@H](C(=O)NN(C)C)C(C)C)c(C)o1 [Structure 57] | < 6000 nM | < 100 nM | 100 to 1000 nM | 100 to 1000 nM |
| COCSC[C@H](NC(=O)OCc1nc(C)cs1)C(=O)N[C@H](CC(C)C)[C@@H](O)C[C@@H](C)C(=O)N[C@@H](C(=O)NCC(C)C)C(C)C [Structure 36] | < 6000 nM | < 100 nM | < 100 nM | < 100 nM |
| Cc1nc(COC(=O)N[C@@H](CS(=O)(=O)C(C)C)C(=O)N[C@H](CC(C)C)[C@@H](O)C[C@@H](C)C(=O)N[C@@H](C(=O)NCC(C)C)C(C)C)c(C)o1 [Structure 59] | 6000 to 100000 nM | < 100 nM | 100 to 1000 nM | 100 to 1000 nM |
| CSC[C@H](NC(=O)OCc1nc(C)oc1C)C(=O)N[C@H](Cc1ccccc1)[C@@H](O)C[C@@H](C)C(=O)N[C@@H](C(=O)NCC(C)C)C(C)C [Structure 50] | 6000 to 100000 nM | 100 to 1000 nM | < 100 nM | < 100 nM |
| CSC[C@H](NC(=O)OCc1nc(C)oc1C)C(=O)N[C@H](CC(C)C)[C@@H](O)C[C@@H](C)C(=O)N[C@@H](C(=O)NCC(C)C)C(C)C [Structure 29] | < 6000 nM | < 100 nM | 100 to 1000 nM | < 100 nM |
| CCSC[C@H](NC(=O)OCc1nc(C)cs1)C(=O)N[C@H](CC(C)C)[C@@H](O)C[C@@H](C)C(=O)N[C@@H](C(=O)NCC(C)C)C(C)C [Structure 19] | > 100000 nM | < 100 nM | < 100 nM | < 100 nM |
| CSC[C@H](NC(=O)OCc1nc(C)cs1)C(=O)N[C@H](CC(C)C)[C@@H](O)C[C@@H](C)C(=O)N[C@@H](C(N)=O)C(C)C [Structure 90] | < 6000 nM | > 1000 nM | – | – |
| CC[C@@H](Cn1nc(C)cc1C)C(=O)N[C@@H](C[S+](C)[O-])C(=O)N[C@@H](CC(C)C)[C@@H](O)C[C@@H](C)C(=O)N[C@@H](C(=O)NCC(C)C)C(C)C (some centres unmarked) [Structure 8] | < 6000 nM | < 100 nM | < 100 nM | 100 to 1000 nM |
| Cc1nc(COC(=O)N[C@@H](CS(C)(=O)=O)C(=O)N[C@H](CC(C)C)[C@@H](O)C[C@@H](C)C(=O)N[C@@H](C(=O)NCc2ccccn2)C(C)C)c(C)o1 [Structure 91] | > 100000 nM | < 100 nM | – | – |
| CC[C@H](C[C@H](O)[C@@H](CC(C)C)NC(=O)[C@H](CS(C)(=O)=O)NC(=O)OCc1nc(C)oc1C)C(=O)N[C@@H](C(=O)NCC(C)C)C(C)C [Structure 92] | < 6000 nM | – | – | – |
| COCS(=O)(=O)C[C@H](NC(=O)CCn1nc(C)cc1C)C(=O)N[C@H](CC(C)C)[C@@H](O)C[C@@H](C)C(=O)N[C@@H](C(=O)NCC(C)C)C(C)C [Structure 15] | – | 100 to 1000 nM | 100 to 1000 nM | 100 to 1000 nM |
| Cc1noc(COC(=O)N[C@@H](CS(C)(=O)=O)C(=O)N[C@H](CC(C)C)[C@@H](O)C[C@@H](C)C(=O)N[C@@H](C(=O)NCC(C)C)C(C)C)n1 [Structure 69] | – | 100 to 1000 nM | 100 to 1000 nM | 100 to 1000 nM |
| COCCOCSC[C@H](NC(=O)OCc1nc(C)cs1)C(=O)N[C@H](CC(C)C)[C@@H](O)C[C@@H](C)C(=O)N[C@@H](C(=O)NCC(C)C)C(C)C [Structure 23] | – | < 100 nM | 100 to 1000 nM | < 100 nM |
